Source: patent US11046691B1 (IDEAYA BIOSCIENCES, INC., priority 2018, dated 2021)
pIC50: −log10 of the molar value.

Biological target: hMAT2A (Homo sapiens (Human), UniProt P31153)
Assay: Phosphate Sensor Fluorescence Assay (MAT2A enzyme inhibition)
Assay type: biochemical
Settings: L-methionine 500 uM, ATP 500 uM
Procedure: The ability of the compound of present disclosure to inhibit MAT2A enzyme was determined using the Malachite Green or Phosphate Sensor Fluorescence Assay described below.
B. Phosphate Sensor Fluorescence Assay
MAT2A enzyme is incubated with a test compound in DMSO or DMSO and its substrates (L-methionine and ATP) in a microtiter plate. The enzymatic reaction is stopped by the addition of Working Phosphate Sensor Mixture. The plate is analyzed for fluorescence at 450 nm.
Assay Buffer: 50 mM Tris, pH 7.5/50 mM KCl/10 mM MgCl2/0.01% Brij-35/1 mM DTT/0.1% BGG/40 nM PNP/6 uM 7-MEG
L-methionine: 500 uM before the addition of Working Phosphate Sensor Mixture
ATP: 500 uM before the addition of Working Phosphate Sensor Mixture
Test compounds or DMSO were added to the appropriate well suing D300e digital dispenser. 5 μl/well of Assay Buffer was added to the wells corresponding to the negative control and 5 μl/well of MAT2A was added to all the wells except for those corresponding to the negative control. After incubating the plate at room temperature for 15 minutes, 5 μl/well of the 1 mM L-methionine/1 mM ATP mixture was added to all wells. The plate was centrifuged at 1000 rpm for 1 minute and then incubated at room temperature for 1 hour. 5 μl of the Working Phosphate Sensor Mixture was added to all wells and the plate was centrifuged at 1000 rpm for 1 minute. The plate was read for fluorescence at 450 nm after exciting at 430 nm.
Percent inhibition was calculated in Chemical and Biological Information System (CBIS), (ChemInnovation Software Inc.). Curves were fitted by CBIS as % inhibition vs. log [compound concentration] using a 4-parameter inhibition model. Fit=(A+((B−A)/(1+((C/x)^D)))) Res=(y−fit)

Sequence of hMAT2A (P31153 whole entry): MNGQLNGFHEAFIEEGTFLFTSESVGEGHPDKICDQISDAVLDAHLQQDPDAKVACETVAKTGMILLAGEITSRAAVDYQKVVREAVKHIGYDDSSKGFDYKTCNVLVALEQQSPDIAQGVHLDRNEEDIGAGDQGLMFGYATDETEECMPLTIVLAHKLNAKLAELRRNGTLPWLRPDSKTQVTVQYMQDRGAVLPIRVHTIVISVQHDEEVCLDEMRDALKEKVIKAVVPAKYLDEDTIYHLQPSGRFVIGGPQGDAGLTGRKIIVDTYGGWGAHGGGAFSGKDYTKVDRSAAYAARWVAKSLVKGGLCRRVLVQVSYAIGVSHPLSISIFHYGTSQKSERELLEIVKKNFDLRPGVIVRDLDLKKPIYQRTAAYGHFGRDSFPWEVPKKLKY

Row | Compound | pIC50 (class symbols) | pIC50 (numeric bound)
1 | 1-[2-(difluoromethoxy)(3--pyridyl)]-7- cyclopropyl-4-[(cyclopropylmethyl)- amino]hydroquinazolin-2-one [Example 416] | > 6.70 | 
2 | 4-(3,3-difluoropyrrolidin-1-yl)-7- chloro-1-phenylhydroquinazolin-2-one [Example 207] | > 6.70 | 
3 | O=c1nc(N2CC[C@@H](O)C2)c2ccc(Cl)cc2n1-c1ccccc1Cl (atropisomer, axis not shown) [Example 135, 4-((3R)-3-hydroxypyrrolidin-1-yl)-7-chloro-1-(2-chlorophenyl)hydro-quinazolin-2-one] | > 6.70 | 
4 | C[C@H](CO)Nc1nc(=O)n(-c2ccccc2Cl)c2nc(C(F)(F)F)ccc12 (atropisomer, axis not shown) [Example 323, (R)-(1Sa)-(2-chlorophenyl)-4-((1-hydroxypropan-2-yl)amino)-7-(trifluoro-methyl)pyrido-[2,3-d]pyrimidin-2(1H)-one] | > 6.70 | 
5 | O=c1nc(N[C@@H]2C[C@H]2F)c2ccc(OC(F)(F)F)cc2n1-c1ccccc1Cl (atropisomer, axis not shown) [Example 404, 4-[((1R,2R)-2-fluorocyclopropyl)-amino]-1-(2-chlorophenyl)-7-(trifluoromethoxy)hydroquinazolin-2-one] | > 6.70 | 
6 | O=c1nc(N[C@@H]2CC[C@@H]2O)c2ccc(C(F)(F)F)nc2n1-c1ccccc1Cl (atropisomer, axis not shown; (Sa)) [Example 335, 4-[((2S,1R)-2-hydroxycyclobutyl)-amino]-(1Sa)-(2-chlorophenyl)-7-(trifluoromethyl)hydro-pyrido[2,3-d]-pyrimidin-2(1H)-one] | > 6.70 | 
7 | O=c1nc(N[C@H]2CC[C@@H]2O)c2ccc(C(F)(F)F)nc2n1-c1ccccc1Cl (atropisomer, axis not shown; (Sa)) [Example 337, 4-[((1S,2 S)-2-hydroxycyclobutyl)-amino]-(1Sa)-(2-chlorophenyl)-7-(trifluoromethyl)hydro-pyridino [2,3-d]-pyrimidin-2-one] | > 6.70 | 
8 | CC1(O)CCN(c2nc(=O)n(-c3ccccc3Cl)c3nc(C(F)(F)F)ccc23)C1 (racemic) [Example 255] | > 6.70 | 
9 | CC1(C)[C@H](O)C[C@@H]1Nc1nc(=O)n(-c2ccccc2Cl)c2nc(C(F)(F)F)ccc12 (relative stereo) [Example 276, 4-[((cis)-3-hydroxy-2,2-dimethylcyclo-butyl)amino]-1-(2-chlorophenyl)-7-(trifluoromethyl)-pyrido[2,3-d]-pyrimidin-2(1H)-one] | 5.00 to 6.00 | 
10 | CNc1nc(=O)n(-c2ccccc2)c2cc(Cl)cc(OC3CNC3)c12 [Example 85, 5-azetidin-3-yloxy-7-chloro-4-(methyl-amino)-1-phenylhydroquinazolin-2-one] |  | < 5.00
11 | CNc1nc(=O)n(-c2cccc(C(F)(F)F)c2)c2cc(Cl)ccc12 [Example 86, 7-chloro-4-(methylamino)-1-[3-(trifluoromethyl)phenyl]hydroquina-zolin-2-one] | 6.30 to 6.70 | 
12 | O=c1nc(N2CC[C@@H](O)C2)c2ccc(Cl)cc2n1-c1ccccc1Br [Example 87, 4-((3R)-3-hydroxypyrrolidin-1-yl)-1-(2-bromophenyl)-7-chlorohydroquinazolin-2-one] | > 6.70 | 
13 | CC1(Nc2nc(=O)n(-c3ccccc3Cl)c3nc(C(F)(F)F)ccc23)CC1 [Example 88, 1-(2-chlorophenyl)-4((1-methylcyclo-propyl)amino)-7-(trifluoromethyl)-pyrido[2,3-d]pyrimidin-2(1H)-one] | > 6.70 | 
14 | CNc1nc(=O)n(-c2ccnc(OC)c2)c2nc(C(F)(F)F)ccc12 [Example 90, 1-(2-methoxypyridin-4-yl)-4-(methyl-amino)-7-(trifluoromethyl)pyrido[2,3-d]-pyrimidin-2(1H)-one] | 6.30 to 6.70 | 
15 | CNc1nc(=O)n(-c2cccc(OC)n2)c2nc(C(F)(F)F)ccc12 [Example 91, 1-(6-methoxypyridin-2-yl)-4-(methylamino)-7-(trifluoromethyl)-pyrido[2,3-d]pyrimidin-2(1H)-one] | > 6.70 | 
16 | CNc1nc(=O)n(-c2cnccc2OC)c2nc(C(F)(F)F)ccc12 [Example 92, 1-(4-methoxypyridin-3-yl)-4-(methyl-amino)-7-(trifluoromethyl)pyrido[2,3-d]pyrimidin-2(1H)-one] | 6.30 to 6.70 | 
17 | CNc1nc(=O)n(-c2cc(OC)ccn2)c2nc(C(F)(F)F)ccc12 [Example 93, 1-(4-methoxypyridin-2-yl)-4-(methyl-amino)-7-(trifluoromethyl)pyrido[2,3-d]pyrimidin-2(1H)-one] |  | < 5.00
18 | O=c1nc(N2CCC2)c2ccc(N3CCC3)cc2n1-c1ccccc1 [Example 94, 4,7-di(azetidin-1-yl)-1-phenylhydro-quinazolin-2-one] | 6.00 to 6.30 | 
19 | C=Cc1ccc2c(NC)nc(=O)n(-c3ccccc3)c2c1 [Example 96, 4-(methylamino)-1-phenyl-7-vinylhydro-quinazolin-2-one] | > 6.70 | 
20 | CCCc1ccc2c(NC)nc(=O)n(-c3ccccc3)c2c1 [Example 97, 4-(methylamino)-1-phenyl-7-propylhydroquinazolin-2-one] | > 6.70 | 

Row | Compound | pIC50 (class symbols) | pIC50 (numeric bound)
21 | Nc1nc(=O)n(-c2ccccc2Cl)c2cc(C(F)(F)F)ccc12 [Example 99, 4-amino-1-(2-chlorophenyl)-7-(trifluoromethyl)hydroquinazolin-2-one] | > 6.70 | 
22 | O=c1nc(NCC(F)F)c2ccc(C(F)(F)F)cc2n1-c1ccccc1Cl [Example 100, 1-(2-chlorophenyl)-4-[(2,2-difluoro-ethyl)amino]-7-(trifluoromethyl)hy-droquinazolin-2-one] | > 6.70 | 
23 | O=c1nc(NCC(F)(F)F)c2ccc(C(F)(F)F)cc2n1-c1ccccc1Cl [Example 101, 1-(2-chlorophenyl)-4-[(2,2,2-trifluoro-ethyl)amino]-7-(trifluoromethyl)hydro-quinazolin-2-one] | > 6.70 | 
24 | CNc1nc(=O)n(-c2ccccc2Cl)c2cc(C(F)(F)F)ccc12 [Example 102, 1-(2-chlorophenyl)-4-(methylamino)-7-(trifluoromethyl)hydroquinazolin-2-one] | > 6.70 | 
25 | O=c1[nH]c(=O)n(-c2ccccc2Cl)c2cc(C(F)(F)F)ccc12 [Example 103, 1-(2-chlorophenyl)-7-(trifluoromethyl)-1,3-dihydroquinazoline-2,4-dione] | > 6.70 | 
26 | CC(C)c1nc(=O)n(-c2ccccc2)c2cc(Cl)ccc12 [Example 104, 7-chloro-4-(methylethyl)-1-phenylhydro-quinazolin-2-one] |  | < 5.00
27 | CCc1nc(=O)n(-c2ccccc2)c2cc(Cl)ccc12 [Example 105, 7-chloro-4-ethyl-1-phenylhydro-quinazolin-2-one] | 6.30 to 6.70 | 
28 | CNc1nc(=O)n(-c2nccc(OC)n2)c2cc(Cl)ccc12 [Example 106, 7-chloro-1-(4-methoxypyrimidin-2-yl)-4-(methylamino)hydroquinazolin-2-one] | 5.00 to 6.00 | 
29 | CNc1nc(=O)n(-c2cc(O)ccc2C)c2cc(Cl)ccc12 [Example 109, 7-chloro-1-(3-hydroxy-6-methylphenyl)-4-(methylamino)hydroquinazolin-2-one] | > 6.70 | 
30 | Cc1c(O)cccc1-n1c(=O)[nH]c(=O)c2ccc(Cl)cc21 [Example 110, 7-chloro-1-(3-hydroxy-2-methylphenyl)-1,3-dihydroquinazoline-2,4-dione] | > 6.70 | 
31 | Nc1nc(=O)n(-c2ccccc2)c2cc(Cl)cc(-n3nccn3)c12 [Example 112, 4-amino-7-chloro-1-phenyl-5-(1,2,3-triazol-2-yl)hydroquinazolin-2-one] |  | < 5.00
32 | CNc1nc(=O)n(-c2nc(C(F)(F)F)cs2)c2cc(Cl)ccc12 [Example 113, 7-chloro-4-(methylamino)-1-[4-(trifluoromethyl)(1,3-thiazol-2-yl)]hydroquinazolin-2-one] |  | < 5.00
33 | CNc1nc(=O)n(-c2cccnc2)c2cc(Cl)ccc12 [Example 114, 7-chloro-4-(methylamino)-1-(3-pyridyl)-hydroquinazolin-2-one] | > 6.70 | 
34 | CCc1ccc2c(NC)nc(=O)n(-c3ccccc3)c2c1 [Example 115, 7-ethyl-4-(methylamino)-1-phenylhydro-quinazolin-2-one] | > 6.70 | 
35 | CNc1nc(=O)n(-c2ncc(C)s2)c2cc(Cl)ccc12 [Example 116, 7-chloro-1-(5-methyl(1,3-thiazol-2-yl))-4-(methylamino)hydroquinazolin-2-one] |  | < 5.00
36 | CNc1nc(=O)n(-c2nc(C)cs2)c2cc(Cl)ccc12 [Example 117, 7-chloro-1-(4-methyl(1,3-thiazol-2-yl))-4-(methylamino)hydroquinazolin-2-one] | 5.00 to 6.00 | 
37 | O=c1nc(NCC(F)(F)F)c2ccc(C(F)(F)F)cc2n1-c1ccccc1 [Example 118] | > 6.70 | 
38 | O=c1nc(NCC(F)F)c2ccc(C(F)(F)F)cc2n1-c1ccccc1 [Example 119, 4-[(2,2-difluoroethyl)amino]-1-phenyl-7-(trifluoromethyl)hydroquinazolin-2-one] | > 6.70 | 
39 | COc1nc(=O)n(-c2ncccn2)c2cc(C(F)(F)F)ccc12 [Example 120] | 5.00 to 6.00 | 
